Converted amounts (≈) assume the structure as drawn. “Also recorded” adds a separate entry of the source. Like-named read-outs stand apart in the source and are kept apart here.
Legend:
[1] = test system: Staphylococcus aureus Smith; assay: Antimicrobial spectrum (MIC); format: cell-based; conditions: 1% glucose nutrient agar, 37° C., 24 or 48 hours
Mycobacterium phlei = assay: Antimicrobial spectrum (MIC); format: cell-based; conditions: 3% glycerol nutrient agar (acid-fast bacteria), 37° C., 24 or 48 hours
Salina lutea = assay: Antimicrobial spectrum (MIC); format: cell-based
Streptococcus faecalis = assay: Antimicrobial spectrum (MIC); format: cell-based; conditions: 1% glucose nutrient agar, 37° C., 24 or 48 hours
melanoma B16 = assay: Antitumor activity, melanoma B16; format: in vivo; conditions: mouse tumor
Brucella abortus = assay: microbe, parasite or virus in culture; format: cell-based
Staphylococcus albus = assay: Antimicrobial spectrum (MIC); format: cell-based; conditions: 1% glucose nutrient agar, 37° C., 24 or 48 hours
Pseudomonas aeruginosa = assay: Antimicrobial spectrum (MIC); format: cell-based; conditions: 1% glucose nutrient agar, 37° C., 24 or 48 hours
Bacillus subtilis PCI219 = assay: Antimicrobial spectrum (MIC); format: cell-based; conditions: 1% glucose nutrient agar, 37° C., 24 or 48 hours
tumor = conditions: Japanese Patent Lay Open No. 44098/1979; cited from earlier work
Klebsiella pneumoniae = assay: Antimicrobial spectrum (MIC); format: cell-based; conditions: 1% glucose nutrient agar, 37° C., 24 or 48 hours
Mycobacterium sp. 607 = assay: Antimicrobial spectrum (MIC); format: cell-based; conditions: 3% glycerol nutrient agar (acid-fast bacteria), 37° C., 24 or 48 hours
Corynebacterium xerosis = assay: Antimicrobial spectrum (MIC); format: cell-based; conditions: 1% glucose nutrient agar, 37° C., 24 or 48 hours
[2] = test system: synthesis of ribosomal RNA and messenger RNA; assay: Mechanism of action: synthesis of ribosomal RNA and messenger RNA; conditions: transplantable cancer cells
bacillus cereus = assay: Antimicrobial spectrum (MIC); format: cell-based; conditions: 1% glucose nutrient agar, 37° C., 24 or 48 hours
[3] = Biological activity compared between saframycins
[4] = test system: Streptococcus pyogenes Cook; assay: Antimicrobial spectrum (MIC); format: cell-based; conditions: blood agar, 37° C., 24 or 48 hours
gastric cancer of man = assay: Growth inhibition of gastric cancer of man heterotransplanted to the nude mouse; format: in vivo
[5] = test system: RNA synthesis (Escherichia coli RNA polymerase, calf thymus DNA); assay: RNA synthesis in in vitro reaction mixture; format: biochemical
Nocardia asteroides = assay: Antimicrobial spectrum (MIC); format: cell-based; conditions: 37° C., 24 or 48 hours
[6] = test system: DNA of transplantable cancer cells; assay: Mechanism of action: reaction with DNA of transplantable cancer cells
Staphylococcus citreus = assay: Antimicrobial spectrum (MIC); format: cell-based; conditions: 1% glucose nutrient agar, 37° C., 24 or 48 hours
leukemia P388 = assay: Antitumor activity, leukemia P388; format: in vivo; conditions: mouse tumor
[7] = test system: Streptococcus pyogenes 090R; assay: Antimicrobial spectrum (MIC); format: cell-based; conditions: blood agar, 37° C., 24 or 48 hours
[8] = test system: Shigella dysenteriae Shiga; assay: microbe, parasite or virus in culture; format: cell-based
various microorganisms = assay: Growth inhibition of various microorganisms; format: cell-based; conditions: at low concentrations
[9] = test system: Corynebacterium dephtheriae; assay: Antimicrobial spectrum (MIC); format: cell-based
Mycobacterium avium = assay: Antimicrobial spectrum (MIC); format: cell-based; conditions: 3% glycerol nutrient agar (acid-fast bacteria), 37° C., 24 or 48 hours
leukemia L1210 = assay: Antitumor activity, leukemia L1210; format: in vivo; conditions: mouse tumor
Ehrlich's ascites tumor = assay: Antitumor activity, Ehrlich's ascites tumor; format: in vivo; conditions: mouse tumor
S-180 solid cancer = assay: Antitumor activity, S-180 solid cancer; format: in vivo; conditions: mouse tumor
Salmonella typhimurium = assay: Antimicrobial spectrum (MIC); format: cell-based; conditions: 1% glucose nutrient agar, 37° C., 24 or 48 hours
[10] = test system: mouse lymphoid leukemia P388; assay: Effects on mouse lymphoid leukemia P388 in BDF1 mice; format: in vivo; conditions: for survival period of treated group over survival period of control group: i.p., 1×10^6 cells i.p., BDF1 mice; for increase of survival period: treatment 1-10 diseased days, 1×10^6 cells
Text: The effects of saframycin S on mouse lymphoid leukemia P388 were studied with BDF1 mice.

Escherichia coli = assay: Antimicrobial spectrum (MIC); format: cell-based; conditions: 1% glucose nutrient agar, 37° C., 24 or 48 hours
[11] = test system: Staphylococcus salivarius; assay: Antimicrobial spectrum (MIC); format: cell-based; conditions: 1% glucose nutrient agar, 37° C., 24 or 48 hours
Aspergillus oryzae = assay: Antimicrobial spectrum (MIC); format: cell-based; conditions: Sabouraud dextrose agar, 27° C., 48 hours
Text: (§1) Medium and culture condition:

Pencillium glaucum = assay: Antimicrobial spectrum (MIC); format: cell-based; conditions: Sabouraud dextrose agar, 27° C., 48 hours
Text: as §1

[12] = test system: Trichophyton mentagrophytes; assay: Antimicrobial spectrum (MIC); format: cell-based; conditions: Sabouraud dextrose agar, 27° C., 48 hours
Text: as §1

Rhodotorula glutinis = assay: Antimicrobial spectrum (MIC); format: cell-based; conditions: Sabouraud dextrose agar, 27° C., 48 hours
Text: as §1

Mucor mucedo = assay: Antimicrobial spectrum (MIC); format: cell-based; conditions: Sabouraud dextrose agar, 27° C., 48 hours
Text: as §1

Saccharomyces cerevisiae = assay: Antimicrobial spectrum (MIC); format: cell-based; conditions: Sabouraud dextrose agar, 27° C., 48 hours
Text: as §1

Serratia marcescens = assay: Antimicrobial spectrum (MIC); format: cell-based; conditions: 1% glucose nutrient agar, 37° C., 24 or 48 hours
Candida albicans 7N = assay: Antimicrobial spectrum (MIC); conditions: Sabouraud dextrose agar, 27° C., 48 hours
transplantable tumors = assay: Activity against transplantable tumors; conditions: in vivo
Aspergillus niger = assay: Antimicrobial spectrum (MIC); conditions: Sabouraud dextrose agar, 27° C., 48 hours
[13] = test system: Staphylococcus aureus 209P; assay: Antimicrobial spectrum (MIC); format: cell-based; conditions: 1% glucose nutrient agar, 37° C., 24 or 48 hours
male DDY strain mice = assay: Acute toxicity LD50 in male DDY strain mice; format: in vivo, mouse; conditions: male DDY mice 18-20 g
[14] = test system: gram-positive bacteria and some acidfast bacteria or gram-negative bacteria; assay: Antibacterial activity, summary of spectrum; format: cell-based
[15] = 1% glucose nutrient agar, 37° C., 24 or 48 hours

Compound: COC1=C(C)C(=O)C2=C(C1=O)C1C3CC4=C(C(=O)C(OC)=C(C)C4=O)C(CNC(=O)C(C)=O)N3C(C#N)C(C2)N1C (centres unmarked) [Saframycin A, reference compound]
- MIC ([1]; Staphylococcus aureus, read-out: MIC): 0.025 µg/mL (≈ 0.0444 µM)
- MIC (Mycobacterium phlei; Mycolicibacterium phlei, read-out: MIC): 1.56 µg/mL (≈ 2.77 µM)
- MIC (Salina lutea): 0.006 µg/mL (≈ 0.0107 µM)
- MIC (Streptococcus faecalis; Enterococcus faecalis, read-out: MIC): 1.56 µg/mL (≈ 2.77 µM)
- effect on melanoma B16 (melanoma B16): effective
- MIC (Brucella abortus; Brucella abortus): 1.56 µg/mL (≈ 2.77 µM)
- MIC (Staphylococcus albus; Staphylococcus, read-out: MIC): 0.006 µg/mL (≈ 0.0107 µM)
- MIC (Pseudomonas aeruginosa; Pseudomonas aeruginosa, read-out: MIC): 100 µg/mL (≈ 178 µM)
- MIC (Bacillus subtilis PCI219; Bacillus subtilis, PCI219, read-out: MIC): 0.025 µg/mL (≈ 0.0444 µM)
- antitumor effect (tumor): strong antitumor effect
- MIC (Klebsiella pneumoniae; Klebsiella pneumoniae, read-out: MIC): 1.56 µg/mL (≈ 2.77 µM)
- MIC (Mycobacterium sp. 607; Mycobacterium, SP.607, read-out: MIC): 1.56 µg/mL (≈ 2.77 µM)
- MIC (Corynebacterium xerosis; Corynebacterium xerosis, read-out: MIC): 0.012 µg/mL (≈ 0.0213 µM)
- synthesis of ribosomal RNA and messenger RNA [2]: prevented synthesis of ribosomal RNA and messenger RNA
- MIC (bacillus cereus; Bacillus cereus, read-out: MIC): 0.4 µg/mL (≈ 0.711 µM)
- biological activity among saframycins A-E ([3]; among saframycins A-E): highest biological activity
- MIC ([4]; Streptococcus pyogenes, read-out: MIC): 1.56 µg/mL (≈ 2.77 µM)
- inhibition of growth of gastric cancer of man (gastric cancer of man): effective in inhibiting the growth of gastric cancer of man
- inhibition of RNA synthesis in vitro ([5]; Escherichia coli RNA polymerase, calf thymus DNA, RNA precursor, no reducing agent): did not inhibit RNA synthesis
- inhibition of RNA synthesis in vitro ([5]; with dithiothreitol (DTT) and other reducing agent): RNA synthesis inhibition equivalent to in vivo effect was observed
- MIC (Nocardia asteroides; Nocardia asteroides, read-out: MIC): 50 µg/mL (≈ 88.9 µM)
- reaction with DNA, inhibition of template activity [6]: specifically reacted with DNA of transplantable cancer cells to inhibit their template activity
- MIC (Staphylococcus citreus; Staphylococcus, read-out: MIC): 0.006 µg/mL (≈ 0.0107 µM)
- effect on leukemia P388 (leukemia P388): effective
- MIC ([7]; Streptococcus pyogenes, 090R, read-out: MIC): 3 µg/mL (≈ 5.33 µM)
- MIC ([8]; Shigella dysenteriae): 1.56 µg/mL (≈ 2.77 µM)
- inhibition of growth of various microorganisms (various microorganisms): effective in inhibiting the growth of various microorganisms at low concentrations
- MIC ([9]; Corynebacterium): 0.001 µg/mL (≈ 0.00178 µM)
- MIC (Mycobacterium avium; Mycobacterium avium, read-out: MIC): 100 µg/mL (≈ 178 µM)
- effect on leukemia L1210 (leukemia L1210): effective
- effect on Ehrlich's ascites tumor (Ehrlich's ascites tumor): effective
- effect on S-180 solid cancer (S-180 solid cancer): effective

Compound: COC1=C(C)C(=O)C2=C(C1=O)[C@@H]1[C@@H]3CC4=C(C(=O)C(OC)=C(C)C4=O)[C@H](CNC(=O)C(C)=O)N3[C@@H](O)[C@H](C2)N1C [Saframycin S]
- MIC (Salmonella typhimurium): 100 µg/mL (≈ 181 µM)
- survival period of treated group over survival period of control group ([10]; 0.5 mg/kg daily for 10 days): 146.2%
- increase of survival period ([10]; 0.5 mg/kg/day): 46.2%
- survival period of treated group over survival period of control group ([10]; 0.75 mg/kg daily for 10 days): 157.7%
- increase of survival period ([10]; 0.75 mg/kg/day): 57.7%
- survival period of treated group over survival period of control group ([10]; 1.0 mg/kg daily for 10 days): 161.5%
- increase of survival period ([10]; 1.0 mg/kg/day): 61.5%
- survival period of treated group over survival period of control group ([10]; 1.5 mg/kg daily for 10 days): 182.7%
- increase of survival period ([10]; 1.5 mg/kg/day): 82.7%
- MIC [1]: 0.001 µg/mL (≈ 0.00181 µM)
- MIC (Mycobacterium phlei): 0.8 µg/mL (≈ 1.45 µM)
- MIC (Salina lutea; [15]): 0.006 µg/mL (≈ 0.0108 µM)
- MIC (Streptococcus faecalis): 1.56 µg/mL (≈ 2.82 µM)
- MIC (Escherichia coli): 25.0 µg/mL (≈ 45.2 µM)
- MIC (Brucella abortus; blood agar, 37° C., 24 or 48 hours): 0.8 µg/mL (≈ 1.45 µM)
- MIC [11]: 25.0 µg/mL (≈ 45.2 µM)
- MIC (Staphylococcus albus): 0.001 µg/mL (≈ 0.00181 µM)
- MIC (Pseudomonas aeruginosa): 100 µg/mL (≈ 181 µM)
- MIC (Bacillus subtilis PCI219): 0.025 µg/mL (≈ 0.0452 µM)
- MIC (Aspergillus oryzae): 100 µg/mL (≈ 181 µM)
- MIC (Pencillium glaucum): 100 µg/mL (≈ 181 µM)
- MIC [12]: 50 µg/mL (≈ 90.3 µM)
- MIC (Rhodotorula glutinis): 100 µg/mL (≈ 181 µM)
- MIC (Mucor mucedo): 100 µg/mL (≈ 181 µM)
- MIC (Saccharomyces cerevisiae): 50 µg/mL (≈ 90.3 µM)
- MIC (Klebsiella pneumoniae): 1.56 µg/mL (≈ 2.82 µM)
- MIC (Serratia marcescens): 50.0 µg/mL (≈ 90.3 µM)
- MIC (Mycobacterium sp. 607): 1.56 µg/mL (≈ 2.82 µM)
- MIC (Candida albicans 7N): > 100 µg/mL
- MIC (Corynebacterium xerosis): 0.001 µg/mL (≈ 0.00181 µM)
- MIC (bacillus cereus): 0.4 µg/mL (≈ 0.723 µM)
- biological activities relative to saframycin A ([3]; compared with saframycin A): still more powerful biological activities in every point than saframycin A; also recorded: almost equal to that of saframycin A
- activity against transplantable tumors (transplantable tumors): activity against transplantable tumors
- MIC [4]: 0.05 µg/mL (≈ 0.0903 µM)
- MIC (Aspergillus niger): > 100 µg/mL
- MIC (Nocardia asteroides): 6.25 µg/mL (≈ 11.3 µM)
- MIC (Staphylococcus citreus): 0.001 µg/mL (≈ 0.00181 µM)
- MIC [7]: 0.05 µg/mL (≈ 0.0903 µM)
- MIC [13]: 0.01 µg/mL (≈ 0.0181 µM)
- MIC [8, 15]: 1.56 µg/mL (≈ 2.82 µM)
- LD50 (male DDY strain mice; intraperitoneal injection): 2.5 mg/kg
- LD50 (male DDY strain mice; intravenous injection): 0.83 mg/kg
- MIC [9, 15]: 0.001 µg/mL (≈ 0.00181 µM)
- MIC (Mycobacterium avium): 50.0 µg/mL (≈ 90.3 µM)
- antibacterial activity [14]: antibacterial activities mainly against gram-positive bacteria; also recorded: antibacterial activity mainly against gram-positive bacteria and some acidfast bacteria or gram-negative bacteria such as Mycobacterium, Shigella dysenteriae Shiga and Brucella

— patent US4372947A, “Antibiotic saframycin S and process for producing the same” (Arai; Tadashi, priority 1980, dated 1983)
